# Calls of active or inactive are those of the source.
# Assays:
# [1] = biological target: Eukaryotic translation initiation factor 4H (Homo sapiens, UniProt Q15056); assay: eIF4H inhibition in translation initiation, SAR follow-up (AID 435011); format: functional
# [2] = biological target: Polyadenylate-binding protein 1 (Homo sapiens, UniProt P11940); assay: PABP inhibition in translation initiation, SAR follow-up (AID 435018); format: functional
# Hexokinase = biological target: T1, Hexokinase (Trypanosoma brucei, UniProt Q38C41); assay: Confirmation assay for inhibitors of Trypanosoma brucei hexokinase 1-Analogue-first series. [Related pubchem assays (depositor defined):AID1430, AID1632, AID2516, AID2560, AID2579, AID2600, AID449725, AID492951]; format: functional
# T1 sequence (Q38C41 whole entry): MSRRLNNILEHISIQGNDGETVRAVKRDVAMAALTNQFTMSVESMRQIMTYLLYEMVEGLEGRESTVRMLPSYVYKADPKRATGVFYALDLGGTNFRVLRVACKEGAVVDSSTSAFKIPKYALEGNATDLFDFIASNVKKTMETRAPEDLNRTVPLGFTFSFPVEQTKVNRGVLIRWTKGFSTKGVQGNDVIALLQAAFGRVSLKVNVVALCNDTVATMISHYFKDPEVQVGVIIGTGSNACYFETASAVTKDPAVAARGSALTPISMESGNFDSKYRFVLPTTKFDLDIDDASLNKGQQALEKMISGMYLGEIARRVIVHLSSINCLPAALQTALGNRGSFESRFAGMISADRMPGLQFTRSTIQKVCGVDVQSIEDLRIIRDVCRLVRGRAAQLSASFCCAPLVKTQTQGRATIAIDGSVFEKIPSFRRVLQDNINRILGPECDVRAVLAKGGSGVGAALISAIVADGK
# cells = format: functional
# [3] = THP-1 cell cytotoxicity, dose response, cytotoxicity control for non-replicating M. tuberculosis project (AID 489025); format: functional
# [4] = inhibitors of SNCA 5'UTR-driven reporter translation, confirmation, H4 neuroglioma cells, luminescence (AID 1988); format: functional, cell-based
# Streptococcus = assay: Group A Streptococcus viability loss, dose response, counter-screen for streptokinase expression inhibitor project, luminescence, BacTiterGlo (AID 1915); format: functional, organism-based;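 further: potency for reduction of bacterial viability or growth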
# [5] = inhibitors of firefly luciferase expression or activity, dose response, H4 neuroglioma cells, luminescence (AID 1990); format: functional, cell-based
# [6] = Luminescence Cell-Based Dose Response HTS to Identify Inhibitors of 5'UTR Stem-Loop Driven Prion Protein mRNA Translation in H4 Neuroglioblastoma Cells. [Related pubchem assays: 1827 (Project Summary), 1813 (Primary HTS)]; format: functional
# [7] = HepG2 cell cytotoxicity, dose response, cytotoxicity control for non-replicating M. tuberculosis project (AID 489018); format: functional; details: Mycobacterium tuberculosis
# [8] = Vero E6 cell cytotoxicity, dose response, cytotoxicity control for non-replicating M. tuberculosis project, secondary assay (AID 492998); format: functional, VeroE6; details: Vero C1008
# [9] = system: Streptococcus sp. 'group A'; assay: growth inhibition of control SK(-) GAS strain, dose response, counter-screen for streptokinase expression inhibitor project, luminescence, kanamycin, BacTiterGlo, confirmation (AID 1900); format: functional, organism-based
# [10] = biological target: Heat shock protein HSP 90-alpha (Homo sapiens, UniProt P07900); format: functional, organism-based
# Polyadenylate-binding protein 1, sequence (P11940 whole entry): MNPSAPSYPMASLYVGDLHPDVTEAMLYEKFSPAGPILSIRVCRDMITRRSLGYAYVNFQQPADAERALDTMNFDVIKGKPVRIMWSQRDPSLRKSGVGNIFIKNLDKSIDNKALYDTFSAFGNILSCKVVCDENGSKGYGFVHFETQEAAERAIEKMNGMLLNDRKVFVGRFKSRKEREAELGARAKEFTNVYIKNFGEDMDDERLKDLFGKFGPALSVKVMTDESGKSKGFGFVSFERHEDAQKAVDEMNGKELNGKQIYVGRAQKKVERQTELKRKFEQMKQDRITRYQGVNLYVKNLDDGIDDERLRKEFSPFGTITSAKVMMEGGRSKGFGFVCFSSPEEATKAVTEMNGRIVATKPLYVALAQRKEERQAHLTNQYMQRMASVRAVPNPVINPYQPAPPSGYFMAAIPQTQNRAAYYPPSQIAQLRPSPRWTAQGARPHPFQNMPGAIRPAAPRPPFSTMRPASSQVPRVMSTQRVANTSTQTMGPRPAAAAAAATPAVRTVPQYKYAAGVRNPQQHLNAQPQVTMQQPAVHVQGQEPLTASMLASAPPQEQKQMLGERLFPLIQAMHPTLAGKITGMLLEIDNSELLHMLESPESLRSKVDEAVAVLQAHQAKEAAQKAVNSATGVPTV
compound,measurement,setting,value
O=C(COc1ccc(C=NNC(=O)c2ccc(O)cc2)cc1)Nc1ccc([N+](=O)[O-])cc1,IC50,[1],5.8 µM (active)
same,IC50,[2],> 100 µM (inactive)
CC(C(=O)Nc1ccccc1)n1sc2ccccc2c1=O (centres undefined),IC50,Hexokinase,8.14 µM (active)
CC(C)Cn1c(=O)c(C(=O)Nc2ccncc2)c(O)c2ccccc21,IC50,cells,16.9 µM (active)
same,CC50,[3],12.4 µM (active)
same,EC50,[4],10.9 µM (active)
same,EC50,Streptococcus,7.31 µM (active)
same,EC50,[5],> 120 µM (not active)
same,EC50,[6],> 120 µM (not active)
same,CC50,[7],19.1 µM (active)
same,CC50,[8],16.5 µM (active)
same,EC50,[9],5.54 µM (active)
same,AC50,[10],6.7 µM (active)
COc1cccc(NC(=O)Cn2sc3ccccc3c2=O)c1,IC50,Hexokinase,5.03 µM (active)
